The record followed here is ChEMBL document CHEMBL1126745, “2,2-Dialkylnaphthalen-1-ones as new potassium channel activators” (J Med Chem, 1993).

Some results are limits rather than exact numbers.

For assay [1], the species on record is Rattus norvegicus. The assay can be described thus: Percentage of inhibition of noradrenaline-induced contractions in rat portal vein at 10 uM (in vitro). The assay is classed as functional.
Assay [2] concerns Rattus norvegicus. Description: Change in systolic blood pressure at intervals of 1 hr after oral administration of 1 mg/kg of compound in spontaneously hypertensive rats (in vivo); Not significant. Format: functional, Artery.
Assay [3] is filed under the species Cavia porcellus. The assay can be described thus: In vitro inhibition of spontaneous tone of guinea pig tracheal spirals. Format: functional. The conditions noted are these: Trachea.
Assay [4] is filed under the species Rattus norvegicus. Description: In vitro inhibition of noradrenaline-induced contractions in rat portal vein. The assay is classed as functional.
Assay [5] deals with Rattus norvegicus. Description: Effective dose (after peroral administration) required to decrease systolic blood pressure by 30 mmHg in spontaneously hypertensive rats (SHR). The assay is classed as functional. The conditions noted are these: Artery, po.
Assay [6] concerns Rattus norvegicus. Description: Change in systolic blood pressure at intervals of 1 hr after oral administration of 1 mg/kg of compound in spontaneously hypertensive rats (in vivo). Format: functional, Artery.
The species named for assay [7] is Rattus norvegicus. The assay can be described thus: Inhibition of noradrenaline-induced contractions in rat portal vein; Insoluble. The assay is classed as functional.
Assay [8] relates to Rattus norvegicus. Description: Change in systolic blood pressure at intervals of 1 hr after oral administration of 0.1 mg/kg of compound in spontaneously hypertensive rats (in vivo). Format: functional, Artery.
Assay [9] is filed under the species Cavia porcellus. Description: Inhibition of spontaneous tone of guinea pig tracheal spirals; Insoluble. The assay is classed as functional, Trachea.

In general, inhibition refers to the relative decrease from the control value, in per cent. Read a low inhibition as little suppression. In turn, `COc1ccc2c(c1)C(N1CCCC1=O)=CC(C)(C)C2=O` displayed an inhibition at 10 µM in the assay filed under Rattus norvegicus [1] of 20%. In the assay with Rattus norvegicus [2], the Delta blood pressure was <20 mmHg.
For the compound `CC1(C)C(=O)c2ccccc2[C@@H](n2ccccc2=O)[C@@H]1O`, at 10 µM the inhibition in the assay listed under Rattus norvegicus [1] was 0%. In addition, the Delta blood pressure in the assay with Rattus norvegicus [2] is <20 mmHg.
As usually defined, the IC50 is the concentration that inhibits the measured activity by half. A high value points to lower potency. On to `CC1(C)C(=O)c2ccc(C#N)cc2[C@@H](NC(=O)c2ccc(Cl)c(Cl)c2)[C@@H]1O`, for which the concentration for half-maximal inhibition (IC50) in the assay filed under Cavia porcellus [3] was > 10000 nM. In the assay listed under Rattus norvegicus [1], this compound returned an inhibition at 10 µM of 67%. Further, the Delta blood pressure with Rattus norvegicus [2] was <20 mmHg.
Turning to `CC1(C)C=C(n2ccccc2=O)c2cc(C#N)ccc2C1=O`, the IC50 was determined as 500 nM in the assay listed under Cavia porcellus [3] and 600 nM in the assay filed under Rattus norvegicus [4]. In addition, the ED30 in the assay with Rattus norvegicus [5] was found to be 4 µg/kg.
Regarding `CC1(C)C(=O)c2ccc(C#N)cc2[C@@H](Oc2ccc(=O)[nH]n2)[C@@H]1O`, the 50% inhibitory concentration (IC50) in the assay filed under Cavia porcellus [3] was 2100 nM; in the assay listed under Rattus norvegicus [4], 8800 nM. In the assay with Rattus norvegicus [5], this compound registered an ED30 of 6 µg/kg.
With `CNc1ccc2c(c1)C(n1ccccc1=O)=CC(C)(C)C2=O`, the IC50 in the assay filed under Cavia porcellus [3] turned out to be 9100 nM; in the assay listed under Rattus norvegicus [4], 52000 nM. In the assay on Rattus norvegicus [2], the Delta blood pressure is listed as <20 mmHg.
As to `C/C(=N/[C@@H]1c2cc(C#N)ccc2C(=O)C(C)(C)[C@H]1O)NC#N`, 3500 nM corresponded to half-maximal inhibition in the assay listed under Cavia porcellus [3] (IC50). In the assay filed under Rattus norvegicus [1], this compound registered an inhibition at 10 µM of 19%. Further, the Delta blood pressure in the assay with Rattus norvegicus [2] was <20 mmHg.
Turning to `CC(=O)OC1c2ccc(Br)cc2C(n2ccccc2=O)=CC1(C)C` (stereo not given), in the assay listed under Cavia porcellus [3], the IC50 was > 10000 nM. The same compound returned an inhibition at 10 µM in the assay listed under Rattus norvegicus [1] of 38%. Also, the Delta blood pressure in the assay with Rattus norvegicus [2] is on record as <20 mmHg.
As for `CC1(C)C(=O)c2ccc(C#N)cc2[C@@H](NC(=O)c2ccc(Cl)cc2Cl)[C@@H]1O`, the IC50 in the assay listed under Cavia porcellus [3] was > 10000 nM. This compound displayed an inhibition at 10 µM in the assay filed under Rattus norvegicus [1] of 35%. Besides, the Delta blood pressure in the assay with Rattus norvegicus [2] is recorded as <20 mmHg.
Regarding `CC1(C)C(=O)c2ccc(C#N)cc2[C@@H](OC2=CC(=O)CC2)[C@@H]1O`, in the assay listed under Cavia porcellus [3], the IC50 was > 10000 nM. This compound had an inhibition at 10 µM in the assay filed under Rattus norvegicus [1] of 9%. The compound also had a Delta blood pressure in the assay with Rattus norvegicus [6] of 50 mmHg.
For the compound `CC1(C)C(=O)c2ccc(C#N)cc2[C@@H](NC(=O)c2ccncc2)[C@@H]1O`, in the assay filed under Cavia porcellus [3], the IC50 was > 10000 nM. Also, the inhibition at 10 µM in the assay filed under Rattus norvegicus [1] was 39%. Also, in the assay with Rattus norvegicus [2], the Delta blood pressure is given as <20 mmHg.
In the case of `CC1(C)C(=O)c2ccc(Br)cc2[C@@H](N2CCN=C2NC#N)[C@@H]1O`, the IC50 in the assay listed under Cavia porcellus [3] is > 10000 nM. For the same compound, in the assay listed under Rattus norvegicus [1], the inhibition at 10 µM is 8%. The “Max fall in blood pressure” value with Rattus norvegicus [6] was determined as 27.6 mmHg.
In the assay filed under Cavia porcellus [3], `CC1(C)C=C(n2ccccc2=O)c2cc(Br)ccc2C1(C)O` (stereo not given) displayed an IC50 of 4200 nM. In the assay listed under Rattus norvegicus [1], testing at 10 µM gave an inhibition of 23%. The Delta blood pressure in the assay on Rattus norvegicus [2] was <20 mmHg.
Regarding `Cn1nc(O[C@@H]2c3cc(C#N)ccc3C(=O)C(C)(C)[C@H]2O)ccc1=O`, the IC50 was found to be 600 nM in the assay listed under Cavia porcellus [3] and 2800 nM in the assay listed under Rattus norvegicus [4]. In the assay with Rattus norvegicus [5], the ED30 amounted to 40 µg/kg.
For `CC1(C)C=C(n2ccccc2=O)c2cc(C#C[Si](C)(C)C)ccc2C1=O`, the IC50 was found to be 2400 nM in the assay filed under Cavia porcellus [3] and 500 nM in the assay listed under Rattus norvegicus [4]. The compound further yielded an ED30 with Rattus norvegicus [5] of 5 µg/kg.
For `CC1(C)C=C(n2ccccc2=O)c2cc(C(=O)O)ccc2C1=O`, in the assay filed under Cavia porcellus [3], the IC50 was > 10000 nM. In the assay listed under Rattus norvegicus [1], this compound returned an inhibition at 10 µM of 0%. Besides, the Delta blood pressure in the assay with Rattus norvegicus [2] is listed as <20 mmHg.
Consider `C#Cc1ccc2c(c1)C(n1ccccc1=O)=CC(C)(C)C2=O`, for which the figures for the IC50 in the assay listed under Cavia porcellus [3] and in the assay filed under Rattus norvegicus [4] were 200 nM and 1000 nM, respectively. In addition, in the assay on Rattus norvegicus [5], the ED30 amounted to 2 µg/kg. The “Max fall in blood pressure” value with Rattus norvegicus [6] is 94 mmHg.
Regarding `COc1ccc2c(c1)[C@@H](n1ccccc1=O)[C@H](O)C(C)(C)C2=O`, in the assay filed under Cavia porcellus [3], the IC50 is > 10000 nM. Further, in the assay filed under Rattus norvegicus [1], the inhibition at 10 µM amounted to 0%. In addition, the “Max fall in blood pressure” value in the assay with Rattus norvegicus [6] worked out at 42.9 mmHg.
In the assay with Rattus norvegicus [5], `CC1(C)C=C(n2ccccc2=O)c2cc(C(F)(F)C(F)(F)F)ccc2C1=O` came in with an ED30 of 2 µg/kg. Further, the IC50 result in the assay filed under Rattus norvegicus [7] and in the assay listed under Cavia porcellus [9] was “Insoluble” throughout. Further, in the assay with Rattus norvegicus [8], the “Max fall in blood pressure” value was found to be 81 mmHg.
For `CC1(C)C=C(n2ccccc2=O)c2cc(C(F)(F)F)ccc2C1=O`, the values for the concentration for half-maximal inhibition (IC50) in the assay filed under Cavia porcellus [3] and in the assay listed under Rattus norvegicus [4] were 500 nM and 300 nM, respectively. Further, the ED30 in the assay with Rattus norvegicus [5] came out at 5 µg/kg.
As to `CC1(C)C(=O)c2ccc(C#N)cc2[C@@H](NC(=O)c2ccc([N+](=O)[O-])cc2)[C@@H]1O`, the IC50 in the assay listed under Cavia porcellus [3] was 7900 nM; in the assay filed under Rattus norvegicus [4] it was 4900 nM. The Delta blood pressure in the assay with Rattus norvegicus [2] is given as <20 mmHg.
Regarding `CC1(C)C=C(n2ccccc2=O)c2cc(Br)ccc2C1=O`, the IC50 in the assay filed under Cavia porcellus [3] turned out to be 200 nM; in the assay listed under Rattus norvegicus [4], 500 nM. This compound showed an ED30 with Rattus norvegicus [5] of 9 µg/kg. Also, in the assay on Rattus norvegicus [8], the “Max fall in blood pressure” value turned out to be 42.6 mmHg.
On to `CC1(C)C=C(N2CCCC2=O)c2ccccc2C1=O`, for which testing at 10 µM in the assay filed under Rattus norvegicus [1] gave an inhibition of 0%. The Delta blood pressure with Rattus norvegicus [2] is reported as <20 mmHg.
For the compound `CC1(C)C=C(n2ccccc2=O)c2cc(C(N)=O)ccc2C1=O`, the IC50 in the assay listed under Cavia porcellus [3] is > 10000 nM. In the assay filed under Rattus norvegicus [1], this compound registered an inhibition at 10 µM of 21%. Moreover, the Delta blood pressure in the assay on Rattus norvegicus [2] is <20 mmHg.
With `CC1(C)C=C(N2CCCC2=O)c2cc(C#N)ccc2C1=O`, the IC50 in the assay listed under Cavia porcellus [3] was found to be 900 nM; in the assay filed under Rattus norvegicus [4] it was 800 nM. In the assay with Rattus norvegicus [5], the ED30 was 30 µg/kg.
`CC1(C)Oc2ccc(C#N)cc2C(N2CCCC2=O)C1O` (racemic) [CROMAKALIM]: the ED30 with Rattus norvegicus [5] turned out to be 50 µg/kg.
As to `CC1(C)Oc2ccc(C#N)cc2[C@@H](N2CCCC2=O)[C@@H]1O` [LEVCROMAKALIM], the IC50 in the assay listed under Cavia porcellus [3] turned out to be 300 nM; in the assay filed under Rattus norvegicus [4], 100 nM. The compound also showed an ED30 in the assay on Rattus norvegicus [5] of 10 µg/kg. The “Max fall in blood pressure” value in the assay on Rattus norvegicus [8] is on record as 73 mmHg.
